Experimental data reported in patent US20070066672A1, “Benzimidazole derivatives and use thereof as peptide deformylase inhibitors” (Arpida A/S, priority 2003, published 2007).
pIC50: −log10 of the molar value.

Key:
[1] = molecular target: T1, Peptide Deformylase (PDF) (Escherichia coli, UniProt P0A6K3); assay: Bacterial peptide deformylase (PDF) assay, colorimetric cell free, enzyme from E. coli; format: biochemical
T1 construct: made in house
Source text: (§1) To find inhibitors of Peptide Deformylase (PDF), a colorimetric cell free assay for measuring the enzymatic activity of PDF has been adapted to the microtiter plate format (96 wells). The assay comprises three components, purified PDF, f-Met-Ala as substrate and TNBS as the detecting agent of primary amino groups. The resulting TNP_NH-Met-Ala sulfite complex can be detected at 420 nm. PDF enzymes, containing Fe^2+ as the native metal, are purified and are stabilized by the addition of tris(2-carboxyethyl)phosphine (TCEP).
(§2) The IC50 value of a compound of the invention as a bacterial PDF inhibitor was determined using the following assay.
(§3) Assay buffer 0.1 M MOPS pH was adjusted to 7.2 with NaOH, containing 0.25 M NaCl, 100 μg/mL catalase and 1 mg/mL BSA.
(§4) E. coli enzyme (2.5 mg/ml) 10 μl+290 μl Assay buffer, 1 μl per ml enzyme mix. S. aureus (15 mg/ml) 10 μl+990 μl Assay buffer, 0.3 μl per ml enzyme mix.
(§5) Substrate mix: 10 mM f-Met-Ala was made up from 200 mM f-Met-Ala in methanol with assay buffer.
(§6) TNBS solution: Freshly dilute 1 M TNBS stock solution diluted 1:10 with water.
(§7) Buffer C: 0.5 M borate buffer adjusted to pH 9.5 with NaOH.
(§8) Buffer D: 0.2 ml of freshly prepared 0.5 M Na2SO3 was mixed with 9.8 mL of 0.5M NaH2PO4.
(§9) Inhibitor solution: 2 mM Sodium 4-(hydroxymercurio)benzoate in assay buffer.
(§10) Compound mix: Compound of formula I dissolved in DMSO in a 10 mg/mL stock solution. Further dilutions were made in DMSO in the concentration range between 0.05 to 100 mM.
(§11) The assay was performed in a 96 Microtiter plate containing test compound. To each well containing test compound mix was added 75 microliter of enzyme mix from E. coli followed by the addition of 25 microliter of substrate mix. The resulting mix was incubated for 30 minutes at room temperature with shaking. TNBS solution (50 microliter/well) was added and the resulting mixture was incubated for 15 minutes under shaking. Buffer C was then added (20 microliter/well). After incubating at room temperature for 15 minutes under shaking, buffer D was added (50 microliter/well). The optical […] was then measured at 420 nm, thereby determining the IC50 value.

[2] = molecular target: T2, Peptide Deformylase (PDF) (Staphylococcus aureus, UniProt P68826); assay: Bacterial peptide deformylase (PDF) assay, colorimetric cell free, enzyme from S. aureus; format: biochemical; conditions: f-Met-Ala substrate, TNBS detection at 420 nm
T2 construct: made in house
T2 sequence (P68826 1-183): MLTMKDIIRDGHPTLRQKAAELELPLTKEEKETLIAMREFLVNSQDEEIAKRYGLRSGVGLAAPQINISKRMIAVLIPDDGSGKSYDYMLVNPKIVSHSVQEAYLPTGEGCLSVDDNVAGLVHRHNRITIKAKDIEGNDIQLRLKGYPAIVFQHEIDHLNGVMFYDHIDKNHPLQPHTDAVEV
Source text: as §1, §2, §3, §4, §5, §6, §7, §8, §9, §10, §11
The assay was repeated using enzyme mix from S. aureus.

T1 sequence (P0A6K3 whole entry): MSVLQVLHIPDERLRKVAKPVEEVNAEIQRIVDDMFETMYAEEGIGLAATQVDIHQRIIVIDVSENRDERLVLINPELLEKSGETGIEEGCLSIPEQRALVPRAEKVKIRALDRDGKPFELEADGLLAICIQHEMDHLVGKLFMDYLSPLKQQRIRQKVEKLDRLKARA

Structure (SMILES)	pIC50 [1]	pIC50 [2]
CCC(NC(=O)CCC(=O)O)c1nc2cc(C(=O)NCC(=O)OC)ccc2n1Cc1ccco1 (stereo not drawn) [Example 11, N-{1-[1-Furan-2-ylmethyl-5-(methoxycarbonylmethyl-carbamoyl)-1H-benzoimidazol-2-yl]-propyl}-succinamic acid]	5.55	5.85
COC(=O)CNC(=O)c1ccc2c(c1)nc(C(CC(C)C)NC(=O)CCC(=O)O)n2C1CC1 (stereo not drawn) [Example 13, N-{1-[1-Cyclopropyl-5-(methoxycarbonylmethyl-carbamoyl)-1H-benzoimidazol-2-yl]-3-methyl-butyl}-succinamic acid]	5.40	6.92
CCC(NC(=O)CCC(=O)O)c1nc2cc(C(=O)NCC(=O)OC)ccc2n1Cc1ccccc1 (stereo not drawn) [Example 12, N-{1-[1-Benzyl-5-(methoxycarbonylmethyl-carbamoyl)-1H-benzoimidazol-2-yl]-propyl}-succinamic acid]	5.32	7.17
COC(=O)CNC(=O)c1ccc2c(c1)nc(C(Cc1ccccc1)NC(=O)CCS)n2CCO (stereo not drawn) [Example 22, ({1-(2-Hydroxy-ethyl)-2-[1-(3-mercapto-propionylamino)-2-phenyl-ethyl]-1H-benzoimidazole-5-carbonyl}-amino)-acetic acid methyl ester]	< 3.70	< 3.70
CCC(NC(=O)CCC(=O)NO)c1nc2cc(C(=O)NCC(=O)OC)ccc2n1Cc1ccccc1 (stereo not drawn) [Example 32, ({1-Benzyl-2-[1-(3-hydroxycarbamoyl-propionylamino)-propyl]-1H-benzoimidazole-5-carbonyl}-amino)-acetic acid methyl ester]	7.35	7.17
COC(=O)CNC(=O)c1ccc2c(c1)nc(C(Cc1ccccc1)NC(=O)CCC(=O)O)n2Cc1ccco1 (stereo not drawn) [Example 5, N-{1-[1-Furan-2-ylmethyl-5-(methoxycarbonylmethyl-carbamoyl)-1H-benzoimidazol-2-yl]-2-phenyl-ethyl}-succinamic acid]	4.89	5.80
COC(=O)CNC(=O)c1ccc2c(c1)nc(C(Cc1ccccc1)NC(=O)CCC(=O)NO)n2CCN (stereo not drawn) [Example 56, ({1-(2-Amino-ethyl)-2-[1-(3-hydroxycarbamoyl-propionylamino)-2-phenyl-ethyl]-1H-benzoimidazole-5-carbonyl}-amino)-acetic acid methyl ester]	5.70	5.80
COC(=O)CNC(=O)c1ccc2c(c1)nc(C(CC(C)C)NC(=O)CCC(=O)O)n2CCO (stereo not drawn) [Example 28, N-{1-[1-(2-Hydroxy-ethyl)-5-(methoxycarbonylmethyl-carbamoyl)-1H-benzoimidazol-2-yl]-3-methylbutyl}-succinamic acid]	< 3.70	4.46
COC(=O)CNC(=O)c1ccc2c(c1)nc(C(Cc1ccccc1)NC(=O)CCC(=O)O)n2CCO (stereo not drawn) [Example 27, N-{1-[1-(2-Hydroxy-ethyl)-5-(methoxycarbonylmethyl-carbamoyl)-1H-benzoimidazol-2-yl]-2-phenyl-ethyl}-succinamic acid]	4.38	4.56
COC(=O)CNC(=O)c1ccc2c(c1)nc(C(Cc1cccc3ccccc13)NC(=O)CCC(=O)NO)n2Cc1ccccc1 (stereo not drawn) [Example 46, ({1-Benzyl-2-[1-(3-hydroxycarbamoyl-propionylamino)-2-naphthalen-1-yl-ethyl]-1H-benzoimidazole-5-carbonyl}-amino)-acetic acid methyl ester]	5.19	6.05
COC(=O)CNC(=O)c1ccc2c(c1)nc(C(CCCCN)NC(=O)CCS)n2CC1CCCCC1 (stereo not drawn) [Example 19, ({2-[5-Amino-1-(3-mercapto-propionylamino)-pentyl]-1-cyclohexylmethyl-1H-benzoimidazole-5-carbonyl}-amino)-acetic acid methyl ester]	4.42	4.57
COC(=O)CNC(=O)c1ccc2c(c1)nc(C(CCCCN)NC(=O)CCS)n2C1CC1 (stereo not drawn) [Example 48, ({2-[5-Amino-1-(3-mercapto-propionylamino)-pentyl]-1-cyclopropyl-1H-benzoimidazole-5-carbonyl}-amino)-acetic acid methyl ester]	5.44	5.70
CCC(NC(=O)CCC(=O)NO)c1nc2cc(C(=O)NCC(=O)OC)ccc2n1C1CC1 (stereo not drawn) [Example 29, ({1-Cyclopropyl-2-[1-(3-hydroxycarbamoyl-propionylamino)-propyl]-1H-benzoimidazole-5-carbonyl}-amino)-acetic acid methyl ester]	7.10	6.98
COC(=O)CNC(=O)c1ccc2c(c1)nc(C(Cc1ccc(O)cc1)NC(=O)CCC(=O)O)n2C1CC1 (stereo not drawn) [Example 25, N-[1-[1-Cyclopropyl-5-(methoxycarbonylmethyl-carbamoyl)-1H-benzoimidazol-2-yl]-2-(4-hydroxyphenyl)-ethyl]-succinamic acid]	4.89	4.55
COC(=O)CNC(=O)c1ccc2c(c1)nc(C(CCCCN)NC(=O)CCC(=O)O)n2CC1CCCCC1 (stereo not drawn) [Example 24, N-{5-Amino-1-[1-cyclohexylmethyl-5-(methoxycarbonylmethyl-carbamoyl)-1H-benzoimidazol-2-yl]-pentyl}-succinamic acid]	4.88	5.85
COC(=O)CNC(=O)c1ccc2c(c1)nc(C(Cc1ccccc1)NC(=O)CCS)n2CCN (stereo not drawn) [Example 50, ({1-(2-Amino-ethyl)-2-[1-(3-mercapto-propionylamino)-2-phenyl-ethyl]-1H-benzoimidazole-5-carbonyl}-amino)-acetic acid methyl ester]	5.14	5.42
COC(=O)CNC(=O)c1ccc2c(c1)nc(C(CCc1ccccc1)NC(=O)CCC(=O)O)n2C1CC1 (stereo not drawn) [Example 7, N-{1-[1-Cyclopropyl-5-(methoxycarbonylmethyl-carbamoyl)-1H-benzoimidazol-2-yl]-3-phenyl-propyl}-succinamic acid]	5.59	5.57
COC(=O)CNC(=O)c1ccc2c(c1)nc(C(Cc1ccccc1)NC(=O)CCC(=O)O)n2Cc1ccc(Cl)cc1 (stereo not drawn) [Example 6, N-{1-[1-(4-Chloro-benzyl)-5-(methoxycarbonylmethyl-carbamoyl)-1H-benzoimidazol-2-yl]-2-phenyl-ethyl}-succinamic acid]	5.89	7.03
COC(=O)CNC(=O)c1ccc2c(c1)nc(C(Cc1cccc3ccccc13)NC(=O)CCC(=O)O)n2CCc1cccs1 (stereo not drawn) [Example 17, N-{1-[5-(Methoxycarbonylmethyl-carbamoyl)-1-(2-thiophen-2-yl-ethyl)-1H-benzoimidazol-2-yl]-2-naphthalen-1-yl-ethyl}-succinamic acid]	7.15	7.00
CCC(NC(=O)CCC(=O)NO)c1nc2cc(C(=O)NCC(=O)OC)ccc2n1Cc1ccco1 (stereo not drawn) [Example 31, ({1-Furan-2-ylmethyl-2-[1-(3-hydroxycarbamoyl-propionylamino)-propyl]-1H-benzoimidazole-5-carbonyl}-amino)-acetic acid methyl ester]	7.01	6.82
COC(=O)CNC(=O)c1ccc2c(c1)nc(C(CCSC)NC(=O)CCC(=O)NO)n2Cc1ccccc1 (stereo not drawn) [Example 38]	4.59	5.46
COC(=O)CNC(=O)c1ccc2c(c1)nc(C(Cc1ccccc1)NC(=O)CCC(=O)NO)n2Cc1ccc(Cl)cc1 (stereo not drawn) [Example 40, ({1-(4-Chloro-benzyl)-2-[1-(3-hydroxycarbamoyl-propionylamino)-2-phenyl-ethyl]-1H-benzoimidazole-5-carbonyl}-amino)-acetic acid methyl ester]	5.85	7.68
CCCCn1c(C(Cc2cccc3ccccc23)NC(=O)CCC(=O)O)nc2cc(C(=O)NCC(=O)OC)ccc21 (stereo not drawn) [Example 18]	5.57	7.13
COC(=O)CNC(=O)c1ccc2c(c1)nc(C(CCc1ccccc1)NC(=O)CCC(=O)NO)n2C1CC1 (stereo not drawn) [Example 41, ({1-Cyclopropyl-2-[1-(3-hydroxycarbamoyl-propionylamino)-3-phenyl-propyl]-1H-benzoimidazole-5-carbonyl}-amino)-acetic acid methyl ester]	5.64	6.44
